Assay results from ChEMBL document CHEMBL3272333, “Synthesis and biologic distribution of radioiodinated beta-adrenergic antagonists” (J Med Chem, 1978).

How the values were obtained:
Parameters in all cases: dose 0.5-1 mg/kg, route intravenous
[1] = system: Liver; assay: Biodistribution in Sprague-Dawley rat liver at 0.5 to 1 mg/kg, iv after 15 mins by gamma-well counting analysis; type: ADME, organism-based; conditions: in vivo, 0.25 h
[2] = system: Spleen; assay: Biodistribution in Sprague-Dawley rat spleen at 0.5 to 1 mg/kg, iv after 15 mins by gamma-well counting analysis; type: ADME, organism-based; conditions: in vivo, 0.25 h
[3] = system: Lung; assay: Biodistribution in Sprague-Dawley rat lung at 0.5 to 1 mg/kg, iv after 15 mins by gamma-well counting analysis; type: ADME, organism-based; conditions: in vivo, 0.25 h
[4] = system: Heart; assay: Biodistribution in Sprague-Dawley rat heart at 0.5 to 1 mg/kg, iv after 15 mins by gamma-well counting analysis; type: ADME, organism-based; conditions: in vivo, 0.25 h
[5] = system: Kidney; assay: Biodistribution in Sprague-Dawley rat kidney at 0.5 to 1 mg/kg, iv after 15 mins by gamma-well counting analysis; type: ADME, organism-based; conditions: in vivo, 0.25 h
[6] = system: Muscle tissue; assay: Biodistribution in Sprague-Dawley rat muscle at 0.5 to 1 mg/kg, iv after 15 mins by gamma-well counting analysis; type: ADME, organism-based; conditions: in vivo, 0.25 h
[7] = system: Bone; assay: Biodistribution in Sprague-Dawley rat bone at 0.5 to 1 mg/kg, iv after 15 mins by gamma-well counting analysis; type: ADME, organism-based, Bone element; conditions: in vivo, 0.25 h
[8] = system: Blood; assay: Biodistribution in Sprague-Dawley rat blood at 0.5 to 1 mg/kg, iv after 15 mins by gamma-well counting analysis; type: ADME, organism-based; conditions: in vivo, 0.25 h
[9] = system: Thyroid gland; assay: Biodistribution in Sprague-Dawley rat thyroid at 0.5 to 1 mg/kg, iv after 15 mins by gamma-well counting analysis; type: ADME, organism-based; conditions: in vivo, 0.25 h
[10] = system: Liver; assay: Biodistribution in Sprague-Dawley rat liver at 0.5 to 1 mg/kg, iv after 1 hr by gamma-well counting analysis; type: ADME, organism-based; conditions: in vivo
[11] = system: Spleen; assay: Biodistribution in Sprague-Dawley rat spleen at 0.5 to 1 mg/kg, iv after 1 hr by gamma-well counting analysis; type: ADME, organism-based; conditions: in vivo
[12] = system: Lung; assay: Biodistribution in Sprague-Dawley rat lung at 0.5 to 1 mg/kg, iv after 1 hr by gamma-well counting analysis; type: ADME, organism-based; conditions: in vivo
[13] = system: Heart; assay: Biodistribution in Sprague-Dawley rat heart at 0.5 to 1 mg/kg, iv after 1 hr by gamma-well counting analysis; type: ADME, organism-based; conditions: in vivo
[14] = system: Kidney; assay: Biodistribution in Sprague-Dawley rat kidney at 0.5 to 1 mg/kg, iv after 1 hr by gamma-well counting analysis; type: ADME, organism-based; conditions: in vivo
[15] = system: Muscle tissue; assay: Biodistribution in Sprague-Dawley rat muscle at 0.5 to 1 mg/kg, iv after 1 hr by gamma-well counting analysis; type: ADME, organism-based; conditions: in vivo
[16] = system: Bone; assay: Biodistribution in Sprague-Dawley rat bone at 0.5 to 1 mg/kg, iv after 1 hr by gamma-well counting analysis; type: ADME, organism-based, Bone element; conditions: in vivo
[17] = system: Blood; assay: Biodistribution in Sprague-Dawley rat blood at 0.5 to 1 mg/kg, iv after 1 hr by gamma-well counting analysis; type: ADME, organism-based; conditions: in vivo
[18] = system: Thyroid gland; assay: Biodistribution in Sprague-Dawley rat thyroid at 0.5 to 1 mg/kg, iv after 1 hr by gamma-well counting analysis; type: ADME, organism-based; conditions: in vivo
[19] = system: Liver; assay: Biodistribution in Sprague-Dawley rat liver assessed per organ at 0.5 to 1 mg/kg, iv after 15 mins by gamma-well counting analysis; type: ADME, organism-based; conditions: in vivo, 0.25 h
[20] = system: Spleen; assay: Biodistribution in Sprague-Dawley rat spleen assessed per organ at 0.5 to 1 mg/kg, iv after 15 mins by gamma-well counting analysis; type: ADME, organism-based; conditions: in vivo, 0.25 h
[21] = system: Lung; assay: Biodistribution in Sprague-Dawley rat lung assessed per organ at 0.5 to 1 mg/kg, iv after 15 mins by gamma-well counting analysis; type: ADME, organism-based; conditions: in vivo, 0.25 h
[22] = system: Heart; assay: Biodistribution in Sprague-Dawley rat heart assessed per organ at 0.5 to 1 mg/kg, iv after 15 mins by gamma-well counting analysis; type: ADME, organism-based; conditions: in vivo, 0.25 h
[23] = system: Stomach; assay: Biodistribution in Sprague-Dawley rat stomach assessed per organ at 0.5 to 1 mg/kg, iv after 15 mins by gamma-well counting analysis; type: ADME, organism-based; conditions: in vivo, 0.25 h
[24] = system: Kidney; assay: Biodistribution in Sprague-Dawley rat kidney assessed per organ at 0.5 to 1 mg/kg, iv after 15 mins by gamma-well counting analysis; type: ADME, organism-based; conditions: in vivo, 0.25 h
[25] = system: Small intestine; assay: Biodistribution in Sprague-Dawley rat small intestine assessed per organ at 0.5 to 1 mg/kg, iv after 15 mins by gamma-well counting analysis; type: ADME, organism-based; conditions: in vivo, 0.25 h
[26] = system: Large intestine; assay: Biodistribution in Sprague-Dawley rat large intestine assessed per organ at 0.5 to 1 mg/kg, iv after 15 mins by gamma-well counting analysis; type: ADME, organism-based; conditions: in vivo, 0.25 h
[27] = system: Muscle tissue; assay: Biodistribution in Sprague-Dawley rat muscle assessed per organ at 0.5 to 1 mg/kg, iv after 15 mins by gamma-well counting analysis; type: ADME, organism-based; conditions: in vivo, 0.25 h
[28] = Biodistribution in Sprague-Dawley rat fat and fur assessed per organ at 0.5 to 1 mg/kg, iv after 15 mins by gamma-well counting analysis; type: ADME, organism-based, Adipose tissue; conditions: in vivo, 0.25 h
[29] = system: Bone; assay: Biodistribution in Sprague-Dawley rat bone assessed per organ at 0.5 to 1 mg/kg, iv after 15 mins by gamma-well counting analysis; type: ADME, organism-based, Bone element; conditions: in vivo, 0.25 h
[30] = system: Blood; assay: Biodistribution in Sprague-Dawley rat blood assessed per organ at 0.5 to 1 mg/kg, iv after 15 mins by gamma-well counting analysis; type: ADME, organism-based; conditions: in vivo, 0.25 h
[31] = system: Thyroid gland; assay: Biodistribution in Sprague-Dawley rat thyroid assessed per organ at 0.5 to 1 mg/kg, iv after 15 mins by gamma-well counting analysis; type: ADME, organism-based; conditions: in vivo, 0.25 h
[32] = system: Liver; assay: Biodistribution in Sprague-Dawley rat liver assessed per organ at 0.5 to 1 mg/kg, iv after 1 hr by gamma-well counting analysis; type: ADME, organism-based; conditions: in vivo
[33] = system: Spleen; assay: Biodistribution in Sprague-Dawley rat spleen assessed per organ at 0.5 to 1 mg/kg, iv after 1 hr by gamma-well counting analysis; type: ADME, organism-based; conditions: in vivo
[34] = system: Lung; assay: Biodistribution in Sprague-Dawley rat lung assessed per organ at 0.5 to 1 mg/kg, iv after 1 hr by gamma-well counting analysis; type: ADME, organism-based; conditions: in vivo
[35] = system: Heart; assay: Biodistribution in Sprague-Dawley rat heart assessed per organ at 0.5 to 1 mg/kg, iv after 1 hr by gamma-well counting analysis; type: ADME, organism-based; conditions: in vivo
[36] = system: Stomach; assay: Biodistribution in Sprague-Dawley rat stomach assessed per organ at 0.5 to 1 mg/kg, iv after 1 hr by gamma-well counting analysis; type: ADME, organism-based; conditions: in vivo
[37] = system: Kidney; assay: Biodistribution in Sprague-Dawley rat kidney assessed per organ at 0.5 to 1 mg/kg, iv after 1 hr by gamma-well counting analysis; type: ADME, organism-based; conditions: in vivo
[38] = system: Small intestine; assay: Biodistribution in Sprague-Dawley rat small intestine assessed per organ at 0.5 to 1 mg/kg, iv after 1 hr by gamma-well counting analysis; type: ADME, organism-based; conditions: in vivo
[39] = system: Large intestine; assay: Biodistribution in Sprague-Dawley rat large intestine assessed per organ at 0.5 to 1 mg/kg, iv after 1 hr by gamma-well counting analysis; type: ADME, organism-based; conditions: in vivo
[40] = system: Muscle tissue; assay: Biodistribution in Sprague-Dawley rat muscle assessed per organ at 0.5 to 1 mg/kg, iv after 1 hr by gamma-well counting analysis; type: ADME, organism-based; conditions: in vivo
[41] = Biodistribution in Sprague-Dawley rat fat and fur assessed per organ at 0.5 to 1 mg/kg, iv after 1 hr by gamma-well counting analysis; type: ADME, organism-based, Adipose tissue; conditions: in vivo
[42] = system: Bone; assay: Biodistribution in Sprague-Dawley rat bone assessed per organ at 0.5 to 1 mg/kg, iv after 1 hr by gamma-well counting analysis; type: ADME, organism-based, Bone element; conditions: in vivo
[43] = system: Blood; assay: Biodistribution in Sprague-Dawley rat blood assessed per organ at 0.5 to 1 mg/kg, iv after 1 hr by gamma-well counting analysis; type: ADME, organism-based; conditions: in vivo
[44] = system: Thyroid gland; assay: Biodistribution in Sprague-Dawley rat thyroid assessed per organ at 0.5 to 1 mg/kg, iv after 1 hr by gamma-well counting analysis; type: ADME, organism-based; conditions: in vivo

Drug uptake [1]: 1.76 % ID/g
Drug uptake [2]: 1.33 % ID/g
Drug uptake [3]: 1.24 % ID/g
Drug uptake [4]: 0.89 % ID/g
Drug uptake [5]: 1.82 % ID/g
Drug uptake [6]: 0.2 % ID/g
Drug uptake [7]: 0.21 % ID/g
Drug uptake [8]: 0.06 % ID/g
Drug uptake [9]: 4.73 % ID/g
Drug uptake [10]: 1.39 % ID/g
Drug uptake [11]: 1.14 % ID/g
Drug uptake [12]: 1.82 % ID/g
Drug uptake [13]: 0.51 % ID/g
Drug uptake [14]: 1.27 % ID/g
Drug uptake [15]: 0.17 % ID/g
Drug uptake [16]: 0.18 % ID/g
Drug uptake [17]: 0.06 % ID/g
Drug uptake [18]: 3.58 % ID/g
Drug uptake [19]: 18.94 %ID
Drug uptake [20]: 0.8 %ID
Drug uptake [21]: 1.89 %ID
Drug uptake [22]: 0.64 %ID
Drug uptake [23]: 0.71 %ID
Drug uptake [24]: 3.45 %ID
Drug uptake [25]: 2.45 %ID
Drug uptake [26]: 0.56 %ID
Drug uptake [27]: 18.27 %ID
Drug uptake [28]: 5.87 %ID
Drug uptake [29]: 2.93 %ID
Drug uptake [30]: 0.79 %ID
Drug uptake [31]: 0.1 %ID
Drug uptake [32]: 15.97 %ID
Drug uptake [33]: 0.6 %ID
Drug uptake [34]: 2.19 %ID
Drug uptake [35]: 0.35 %ID
Drug uptake [36]: 0.7 %ID
Drug uptake [37]: 2.3 %ID
Drug uptake [38]: 5.49 %ID
Drug uptake [39]: 0.94 %ID
Drug uptake [40]: 15.96 %ID
Drug uptake [41]: 7.19 %ID
Drug uptake [42]: 2.44 %ID
Drug uptake [43]: 0.86 %ID
Drug uptake [44]: 0.07 %ID
SMILES: CC(C)NCC(O)COc1ccc(NC(=O)c2cccc([125I])c2)cc1 (racemic)
